# From US8476025B2, “ATM-dependent phosphorylation of Sp1 is involved in the cellular response to DNA damage and enhances cellular survival after DNA damage” (Philadelphia Health and Education Corporation, priority 2007, dated 2013)
# Like-named read-outs stand apart in the source and are kept apart here.
# Experiments:
# Sp1 phosphorylation [1] = conditions: NHDFs
# Sp1 phosphorylation [2] = conditions: fibroblasts with wild-type ATM, one hour exposure
# [3] = test system: Phosphorylation of Sp1 and H2AX; experiment: Immunoblot of H2O2-induced Sp1 and H2AX phosphorylation in NHDFs pretreated with wortmannin or KU55933; type: cell-based, human; conditions: 200 μM H2O2, pre-treatment with 10 μM KU55933
# [4] = type: cell-based, human; conditions: U2OS, 10 μM ATM inhibitor, 200 μM H2O2
# [5] = test system: Sp1 phosphorylation at serine 101; type: cell-based, human; conditions: U2OS, 10 μM ATM inhibitor
# ATM kinase activity = experiment: Indirect immunofluorescence for γSp1^101 and phospho-ATMs1981 in UV-exposed U2OS cells; type: cell-based, human; conditions: 0.5 J/m^2 UV, pre-treated with 10 μM KU55933
# Description: U2OS cells were plated onto glass coverslips 24-36 hours before treatment. […] U2OS cells were washed in ice-cold PBS twice and pre-extracted in 0.2% Triton X-100/30% ddH2O/20 mM PMSF in PBS for 5 minutes at 4° C. Cells were then washed with PBS and fixed in 2% Para-formaldehyde/3% sucrose in PBS for 10 minutes at room temperature. Cells were washed twice in PBS at room temperature then permeablized in 0.5% Triton X-100 in PBS for 5 minutes at 4° C. Cells were washed 2 times in room temperature PBST (0.1% Tween 20, 0.02% Sodium azide in PBS) and incubated in primary antibody overnight at 4° C., mouse monoclonal γH2AX (ser139, Upstate Biotechnology), diluted 1:1000 in PBST solution, mouse P-ATMser1981 (Cell Signalling, diluted 1:1000) or rabbit polyclonal γSp1^101 (diluted 1:500, 21st Century Biotechnology). Cells were washed in PBST three times followed by the addition of secondary antibody, AlexaFlour488 donkey anti-rabbit, diluted 1:1000 in PBST and AlexaFlour594 donkey anti-mouse antibody, diluted 1:1000 in PBST for 1 hours in the dark. Cells were washed 4 times with PBST. Slides were mounted using Vectashield mounting medium containing DAPI (Vector Labs).
# ATM = ATM (Homo sapiens, UniProt Q13315); conditions: Hickson et al. 2004; cited from earlier work
# U2OS cells = experiment: Clonogenic rescue experiment in Sp1-depleted U2OS cells exposed to H2O2; type: cell-based, human; conditions: H2O2 for one hour, colonies counted after 11 days
# Description: In the case of the rescue experiment, U2OS cells were transfected with siRNA and replated 72 hours later. The cells were then transfected with WT Sp1 or Sp1-101A and 48 hours later cells were exposed to H2O2 and re-seeded onto 60 mm dishes. Colonies were fixed and stained in crystal violet 11 days after plating and then counted.
# Sequence of ATM (Q13315 whole entry): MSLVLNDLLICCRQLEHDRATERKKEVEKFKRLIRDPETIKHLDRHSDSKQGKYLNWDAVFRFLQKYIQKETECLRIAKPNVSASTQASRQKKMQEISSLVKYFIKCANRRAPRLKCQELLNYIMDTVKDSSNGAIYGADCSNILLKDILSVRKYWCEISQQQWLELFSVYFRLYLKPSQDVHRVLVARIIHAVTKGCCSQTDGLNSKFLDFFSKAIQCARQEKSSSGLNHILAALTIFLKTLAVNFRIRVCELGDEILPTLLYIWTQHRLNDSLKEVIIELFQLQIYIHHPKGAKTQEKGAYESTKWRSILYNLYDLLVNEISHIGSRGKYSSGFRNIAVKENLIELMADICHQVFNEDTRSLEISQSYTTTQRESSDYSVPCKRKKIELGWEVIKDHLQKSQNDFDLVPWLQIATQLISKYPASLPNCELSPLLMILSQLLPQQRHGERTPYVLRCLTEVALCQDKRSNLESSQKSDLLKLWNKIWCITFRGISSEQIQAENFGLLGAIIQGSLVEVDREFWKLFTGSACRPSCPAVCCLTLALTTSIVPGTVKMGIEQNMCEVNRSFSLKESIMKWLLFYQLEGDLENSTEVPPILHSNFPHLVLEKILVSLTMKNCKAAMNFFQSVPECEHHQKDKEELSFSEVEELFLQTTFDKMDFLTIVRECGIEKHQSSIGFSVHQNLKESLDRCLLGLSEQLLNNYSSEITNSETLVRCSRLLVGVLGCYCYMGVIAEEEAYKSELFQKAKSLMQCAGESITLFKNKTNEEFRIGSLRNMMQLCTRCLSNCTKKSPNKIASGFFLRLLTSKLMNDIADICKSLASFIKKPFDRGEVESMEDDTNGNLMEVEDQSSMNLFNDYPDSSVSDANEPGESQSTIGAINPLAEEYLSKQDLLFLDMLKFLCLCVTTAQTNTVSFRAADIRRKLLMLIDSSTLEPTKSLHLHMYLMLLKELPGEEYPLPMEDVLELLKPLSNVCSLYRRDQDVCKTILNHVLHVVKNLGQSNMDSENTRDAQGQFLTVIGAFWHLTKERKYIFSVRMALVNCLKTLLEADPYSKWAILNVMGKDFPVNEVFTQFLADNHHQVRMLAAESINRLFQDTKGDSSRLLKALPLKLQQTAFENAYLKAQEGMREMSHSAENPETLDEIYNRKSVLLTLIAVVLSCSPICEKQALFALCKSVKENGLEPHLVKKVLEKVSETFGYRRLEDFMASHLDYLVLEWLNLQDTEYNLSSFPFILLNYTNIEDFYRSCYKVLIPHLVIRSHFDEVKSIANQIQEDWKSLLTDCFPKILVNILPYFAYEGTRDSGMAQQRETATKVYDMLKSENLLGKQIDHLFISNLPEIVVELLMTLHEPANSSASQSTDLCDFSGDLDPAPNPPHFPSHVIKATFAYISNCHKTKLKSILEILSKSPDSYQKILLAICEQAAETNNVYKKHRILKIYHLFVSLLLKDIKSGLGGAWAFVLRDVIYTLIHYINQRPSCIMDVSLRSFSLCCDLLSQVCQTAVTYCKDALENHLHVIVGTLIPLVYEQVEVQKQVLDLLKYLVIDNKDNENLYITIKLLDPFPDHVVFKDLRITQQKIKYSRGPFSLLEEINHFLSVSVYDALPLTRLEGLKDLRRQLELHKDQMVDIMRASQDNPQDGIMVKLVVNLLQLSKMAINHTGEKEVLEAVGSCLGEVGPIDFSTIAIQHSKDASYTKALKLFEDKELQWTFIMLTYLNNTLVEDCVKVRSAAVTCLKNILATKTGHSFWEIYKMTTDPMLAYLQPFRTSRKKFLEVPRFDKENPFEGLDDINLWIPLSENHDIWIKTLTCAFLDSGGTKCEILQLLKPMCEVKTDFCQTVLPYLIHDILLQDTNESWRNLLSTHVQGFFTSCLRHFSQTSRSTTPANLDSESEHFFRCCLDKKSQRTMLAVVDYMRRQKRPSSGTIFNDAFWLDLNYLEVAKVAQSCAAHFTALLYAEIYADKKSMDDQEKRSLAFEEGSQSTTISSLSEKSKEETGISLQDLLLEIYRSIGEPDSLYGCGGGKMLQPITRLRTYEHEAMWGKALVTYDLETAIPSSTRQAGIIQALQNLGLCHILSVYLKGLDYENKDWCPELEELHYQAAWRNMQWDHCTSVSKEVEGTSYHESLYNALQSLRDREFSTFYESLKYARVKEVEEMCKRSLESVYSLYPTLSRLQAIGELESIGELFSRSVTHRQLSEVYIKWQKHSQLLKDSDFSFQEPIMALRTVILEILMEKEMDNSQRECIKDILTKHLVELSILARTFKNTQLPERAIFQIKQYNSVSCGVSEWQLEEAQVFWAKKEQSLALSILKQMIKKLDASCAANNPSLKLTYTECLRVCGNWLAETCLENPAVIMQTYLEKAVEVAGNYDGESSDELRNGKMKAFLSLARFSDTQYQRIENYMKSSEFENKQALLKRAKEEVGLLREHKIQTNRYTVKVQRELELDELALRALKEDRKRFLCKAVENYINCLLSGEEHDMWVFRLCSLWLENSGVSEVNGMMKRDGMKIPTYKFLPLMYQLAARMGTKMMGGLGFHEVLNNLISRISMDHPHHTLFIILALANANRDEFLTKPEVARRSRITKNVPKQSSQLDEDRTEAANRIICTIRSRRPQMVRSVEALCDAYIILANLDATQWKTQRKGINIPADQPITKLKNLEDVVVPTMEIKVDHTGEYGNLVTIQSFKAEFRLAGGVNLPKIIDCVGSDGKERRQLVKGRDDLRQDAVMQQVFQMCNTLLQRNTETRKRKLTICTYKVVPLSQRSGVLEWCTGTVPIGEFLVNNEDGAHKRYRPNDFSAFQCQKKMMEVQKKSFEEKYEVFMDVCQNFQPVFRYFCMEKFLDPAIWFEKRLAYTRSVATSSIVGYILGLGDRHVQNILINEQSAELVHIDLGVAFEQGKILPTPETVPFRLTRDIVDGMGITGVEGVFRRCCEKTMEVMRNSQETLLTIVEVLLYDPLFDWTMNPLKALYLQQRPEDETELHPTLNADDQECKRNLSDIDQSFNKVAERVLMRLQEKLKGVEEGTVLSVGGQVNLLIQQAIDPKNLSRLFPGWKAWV
compound,measurement,setting,value
"OO [H2O2, hydrogen peroxide]",Time by which the 95 kDa form of Sp1 became the predominant species again,Sp1 phosphorylation [1]; 200 μM H2O2,≤ 8 h
same,Time of peak Sp1 phosphorylation,Sp1 phosphorylation [1]; 200 μM H2O2,one hour
same,Time to first observed Sp1 phosphorylation post-treatment,Sp1 phosphorylation [1]; 200 μM H2O2,15 min
same,H2O2 concentration at which 105 kDa becomes the major Sp1 species,Sp1 phosphorylation [1]; one hour exposure,200 µM
same,H2O2 concentration at which the Sp1 shift to 105 kDa is detected,Sp1 phosphorylation [1]; one hour exposure,50 µM
same,H2O2 concentration at which Sp1 was shifted completely to the 105 kDa form,Sp1 phosphorylation [2],25 µM
O=c1cc(-c2cccc3c2Sc2ccccc2S3)oc(N2CCOCC2)c1 [KU55933],H2O2-induced phosphorylation of Sp1 and H2AX,[3],reduced but not abolished
same,Phosphorylation of H2AX,[4],diminished
same,Electromobility shift in Sp1 from the 95 kDa to 105 kDa form,[5]; 200 μM H2O2 for one hour,blocked
same,Phosphorylation of Sp1 at serine 101,[5]; 200 μM H2O2 for one hour,abolished
same,Overall electromobility shift of total Sp1,[5]; 30 J/m^2 UV for four hours,partial reduction
same,Phosphorylation of Sp1 at serine 101,[5]; 30 J/m^2 UV for four hours,abolished
same,ATM phosphorylation at serine 1981,ATM kinase activity,still phosphorylated
same,γSp1^101 immunofluorescence signal,ATM kinase activity,lack of γSp1^101
same,ATM kinase activity,ATM,inhibited
"Sp1^S101A: exogenously expressed Sp1 mutant with serine 101 changed to Ala, not phosphorylated in response to damage",Colony survival in response to H2O2,U2OS cells,failed to rescue
"wild-type Sp1: exogenously expressed wild-type Sp1 (SEQ ID NO: 2) with HA-tag, transfected in pFLAG-CMV2",Colony survival in response to H2O2,U2OS cells,restored survival to the level observed with non-targeting RNAi
